Results on 6 compounds are retold here after patent US12291502B2, “Topoisomerase II-alpha inhibitors and methods of treating cancer using the same” (The Regents of the University of Colorado, priority 2019, dated 2025).

Entries after “also recorded” stand apart in the source; their conditions may differ.

In one series the test system is SW620 tumor organoids. Description: Tumor organoid cytotoxicity / 3D cell viability (CellTox Green). The class given is cell-based. As for the experimental part:
Tumor organoid cytotoxicity. Fluorescence image-based method: The CellTox™ Green assay (Promega, Madison, WI, USA) was used with 3D tumor organoid to measure spheroid death. 0.1% CellTox™ Green was included in each well at the time of analogs dosing. 10% lysis solution was used as a cell death control. Fluorescence was measured at various time points with 465-510 nm excitation and 520-530 nm emission. Luminescence plate reader method: A 1:1 ratio of CellTiter-Glo™ 3D reagent (Promega) was added to 3D tumor organoid and the plate was shaken at 400 rpm for 30 min before luminescence was read with a PerkinElmer Envision plate reader.
Finally, SW620 tumor organoid cytotoxicity experiments were conducted using the CellTox Green assay, a fluorescence image-based method, to determine whether the inhibition of TCF transcription and effects on EMT are not the result of cytotoxicity. […] All of the analogs tested display IC50 dose response >30 μM and were higher compared to the IC50 values obtained during the downregulation of TCF transcription activity, and the EC50 values obtained for EMT modulation. Thus, the biological effects on TCF-transcription and EMT are not a result of tumor organoid cell death.
(§1) Tumor organoid cytotoxicity. SW620 tumor organoids were grown as previously outlined. CellTox™ Green-Express Cytotoxicity Assay (Promega, WI) solution was prepared per manufacturer's protocol. Briefly, organoids were treated for 72 h with CellTox™ Green Express (0.5×) reagent and various doses of TOP2A inhibitors over a range of 0-to-40 μM. Organoids were then imaged using the Opera Phenix HCS system (PerkinElmer, MA). CellTox™ Green Express was excited at 488 nm and emission was detected at 500-550 nm. Mean intensity of the whole well was utilized for calculating cytotoxicity with Lysis Buffer (Promega, WI, 0.025×) as the 0% viability control and 0.4% DMSO as the 100% viability control. Intensity values were normalized to these controls using GraphPad Prism 7.0 (GraphPad, CA).
as §1, with “CellTox™-Green-Express” for “CellTox™ Green-Express”, “(GraphPad.” for “(GraphPad,”

For series [1], the system named is H2AX S139 phosphorylation (γ-H2AX) in colon cancer cell lines HT29 and SW620. Description: γ-H2AX DNA damage assay (immunofluorescence). The series is classed as cell-based. Conditions: 0-40 μM for Neo, 7, BAP1, 5-100 μM for etoposide. As for the experimental part: γ-H2AXDNA damage assay. Colon cancer cell lines HT29 and SW620 were plated to black clear bottom 96 well plates at 20,000 cells/well in 100 μL of phenol red free medium. […] Cells were fixed with 4% paraformaldehyde at room temp for 20 min, washed 3 times with 400 μL/well of PBS, permeabilized and blocked with 100 μL of 3% BSA and 0.1% IGEPAL in PBS for 20 min. Cells were then incubated in γ-H2AX primary antibody (Cell Signaling, 1:400 dilution) at 4° C. overnight, washed 4 times with PBS, and incubated with FITC conjugated anti-rabbit secondary antibody (Cell Signaling, 1:200 dilution) at room temp for 1 hour, and washed 4 times with PBS. Cells were stained with 10 μM of Hoechst 33342 at room temp for 10 min, washed 4 times with PBS before imaged with a 20× objective using PerkinElmer Operetta imager.

[2] abbreviates: Homo sapiens, SW-620, Table 2, 72 hours.

One may read the IC50 as the midpoint of a concentration-inhibition curve. The low end stands for greater potency, the high end for weaker potency. In the case of `CC(C)(C)C(=O)Nc1ccc2c(-c3ccccc3)ccnc2c1O` [Analog 39], the IC50 in the series with SW620 tumor organoids (Table 2, 72 hours) was above 30 µM.

Regarding `Cn1ccc2c(c1=O)C(=O)c1nccc3c1C2NC1=CCC=CC13` (centres unmarked) [neo, neoamphimedine, reference compound], the entries for the “DNA double stranded breaks (γ-H2AX)” value in series [1] and in series [1] (listed as Neo) were “do not damage DNA” and “do not cause DNA DSBs”, respectively.

For `O=C(CCN1CCOCC1)Nc1ccc2c(-c3cc(F)ccc3O)ccnc2c1O` [Analog 42], the IC50 in the series with SW620 tumor organoids (setting [2]) was above 30 µM.

Regarding `CC(=O)Nc1ccc2c(-c3cc(F)ccc3O)ccnc2c1O` [Analog 7], the IC50 with SW620 tumor organoids (setting [2]) is above 30 µM. Further, in series [1], the “DNA double stranded breaks (γ-H2AX)” value was “do not damage DNA; also recorded: do not cause DNA DSBs”.

As to `CC(=O)Nc1ccc(-c2ccnc3c(O)c(NC(C)=O)ccc23)cc1` [Analog 35], the IC50 in the series with SW620 tumor organoids (Table 2, 72 hours) was above 30 µM.

`CC(=O)Nc1ccc2c(-c3ccoc3)ccnc2c1O` [Analog 56] showed a 50% inhibitory concentration (IC50) in the series on SW620 tumor organoids (setting [2]) above 30 µM.
